This is an account of results in ChEMBL document CHEMBL2390885, “Discovery of pyrido[2,3-d]pyrimidine-based inhibitors of HCV NS5A” (Bioorg Med Chem Lett, 2013).

Data set [1] can be described thus: AUC in Sprague-Dawley rat at 5 mg/kg, po. Type of data set: ADME, organism-based. Also noted: dose 5 mg/kg, route oral. The settings on record: plasma.
A short description of data set [2]: Oral bioavailability in Sprague-Dawley rat at 5 mg/kg. The settings on record: in vivo. The data set is classed as ADME, organism-based.
Data set [3] in a line: Half life in Sprague-Dawley rat at 5 mg/kg, po. The data set is classed as ADME, organism-based. Also noted: dose 5 mg/kg, route oral. The note with it: in vivo.
Data set [4] in a line: Cmax in Sprague-Dawley rat at 5 mg/kg, po. Type of data set: ADME, organism-based. Also noted: dose 5 mg/kg, route oral. The settings on record: in vivo.
A short description of data set [5]: Half life in Sprague-Dawley rat at 5 mg/kg, iv. Type of data set: ADME, organism-based. Details: dose 5 mg/kg, route intravenous. The note with it: in vivo.
Data set [6] in a line: Clearance in Sprague-Dawley rat at 5 mg/kg, iv. Type of data set: ADME, organism-based. Details: dose 5 mg/kg, route intravenous. The note with it: in vivo.
Data set [7] relates to Hepatitis C virus. Kind of data set: Antiviral activity against Hepatitis C virus genotype 1b by replicon assay. Type of data set: functional, organism-based, Hepacivirus hominis.
Data set [8] relates to Hepatitis C virus. In words: Antiviral activity against Hepatitis C virus genotype 1a by replicon assay. Type of data set: functional, organism-based, Hepacivirus hominis. The settings on record: subtype 1a.
Data set [9] has as its system Hepatitis C virus. In words: Antiviral activity against Hepatitis C virus genotype 1b harboring NS5A Y93C/K26R double mutant infected in chimpanzee assessed as reduction in viral load at 2.5 mg/kg, iv administered every 8 hrs measured after 32 hrs. The data set is classed as functional, organism-based. Details: dose 2.5 mg/kg. The settings on record: Hepacivirus hominis.

Data set [10] has as its system Hepatitis C virus. Kind of data set: Antiviral activity against Hepatitis C virus genotype 1b harboring NS5A L28M mutant infected in chimpanzee assessed as reduction in viral load at 2.5 mg/kg, iv administered every 8 hrs measured after 32 hrs. Type of data set: functional, organism-based. Also noted: dose 2.5 mg/kg. The settings on record: Hepacivirus hominis.
Data set [11] deals with Hepatitis C virus. Kind of data set: Antiviral activity against Hepatitis C virus genotype 1b harboring NS5A Q24R/K26R double mutant infected in chimpanzee assessed as reduction in viral load at 2.5 mg/kg, iv administered every 8 hrs measured after 32 hrs. Type of data set: functional, organism-based. Details: dose 2.5 mg/kg. The note with it: Hepacivirus hominis.
The test system of data set [12] is Hepatitis C virus. Kind of data set: Antiviral activity against Hepatitis C virus genotype 1b harboring NS5A K26R mutant infected in chimpanzee assessed as reduction in viral load at 2.5 mg/kg, iv administered every 8 hrs measured after 32 hrs. Type of data set: functional, organism-based. Details: dose 2.5 mg/kg. The settings on record: Hepacivirus hominis.
Data set [13] in a line: Solubility in aqueous buffer. Type of data set: physicochemical.
Data set [14] is described as follows: Half life in iv dosed chimpanzee. The data set is classed as ADME, organism-based, Pan troglodytes. The note with it: in vivo.
Data set [15] concerns Hepatitis C virus. Kind of data set: Antiviral activity against Hepatitis C virus genotype 1b infected in chimpanzee assessed as log reduction in viral load at 2.5 mg/kg, iv administered every 8 hrs measured after 32 hrs relative to control. Type of data set: functional, Hepacivirus hominis.
In data set [16] the test system is Hepatitis C virus. Kind of data set: Antiviral activity against Hepatitis C virus genotype 1b by replicon assay in presence of human plasma. The data set is classed as functional, organism-based, Hepacivirus hominis.
Data set [17] in a line: Clearance in dog at 2.5 mg/kg, iv. Details: dose 2.5 mg/kg, route intravenous. Type of data set: ADME, organism-based, Canis lupus familiaris. The settings on record: in vivo.
Data set [18] can be described thus: Half life in dog at 2.5 mg/kg, iv. The settings on record: in vivo. Type of data set: ADME, organism-based, Canis lupus familiaris. Also noted: dose 2.5 mg/kg, route intravenous.
The nature of data set [19]: AUC in dog at 2.5 mg/kg, po. The note with it: plasma.
Data set [20] can be described thus: Cmax in dog at 2.5 mg/kg, po. The settings on record: in vivo.
The nature of data set [21]: Half life in dog at 2.5 mg/kg, po. The note with it: in vivo.
Data set [22] is described as follows: Oral bioavailability in dog at 2.5 mg/kg. The settings on record: in vivo.

Values after ≈ are worked out from the molar mass of the structure shown. Active and inactive are the calls of the source. The rule behind the calls is not given here.

Molecule `CC(C)c1ccc2c(Nc3cc(C(=O)N[C@@H](C)C4CCCCC4)ccc3Sc3ccc(N)cc3)ncnc2n1` gave an AUC in [1] of 250 ng·h/mL. In addition, the bioavailability in data set [2] was 5%. Also, the half-life was 0.8 h in [3] and 0.5 h in [5]. The highest level in [4] (Cmax) was 200 ng/mL. This molecule showed a clearance in data set [6] of 21.5 mL/min/kg. Moreover, the results for the EC50 in data set [7] and in data set [8] were 45 nM and 240 nM, respectively.
In the case of `CC(C)c1ccc2c(Nc3cc(C(=O)N[C@@H](C)c4ccc(Br)cc4)ccc3Sc3ccc(N)cc3)ncnc2n1`, the AUC in data set [1] stood at 3840 ng·h/mL. The molecule further returned a bioavailability in [2] of 24.9%. The results for the half-life in data set [3] and in data set [5] were 2 h and 1.9 h, respectively. Further, in [4], the peak level (Cmax) was 330 ng/mL. This molecule gave a clearance in data set [6] of 5.67 mL/min/kg. Besides, the EC50 turned out to be 4 nM in data set [7] and 16 nM in data set [8].
For the molecule `CC(C)c1ccc2c(Nc3cc(C(=O)N[C@@](C)(CO)c4ccccc4)ccc3Sc3ccc(N)cc3)ncnc2n1`, the outcome in data set [9], in [10], in [11] and in [12] was inactive. In data set [13], this molecule displayed a solubility of 19.7 µM (≈ 11.1 µg/mL). Moreover, the half-life in data set [14] was 4.1 h; in data set [3], 2.7 h; in data set [5], 1.1 h. Also, the FC in data set [15] worked out at 1.65. Also, the EC50 turned out to be 34 nM in data set [16], 2 nM in [7] and 188 nM in data set [8]. Besides, the AUC in data set [1] was 900 ng·h/mL. In data set [2], this molecule gave a bioavailability of 13.3%. Also, in data set [4], the peak level (Cmax) was 320 ng/mL. The same molecule gave a clearance in data set [6] of 12.5 mL/min/kg.
For the molecule `COC(=O)Nc1ccc(Sc2ccc(C(=O)N[C@@H](C)c3ccccc3)cc2Nc2ncnc3nc(C(C)C)ccc23)cc1`, the bioavailability in data set [2] is 0%. Moreover, in data set [5], the half-life was 0.4 h. In addition, the clearance in [6] is 12.8 mL/min/kg. Besides, the figures for the EC50 in [7] and in data set [8] were 4 nM and 42 nM, respectively.
On to `CC[C@@H](NC(=O)c1ccc(Sc2ccc(N)cc2)c(Nc2ncnc3nc(C(C)C)ccc23)c1)c1ccccc1`, for which the EC50 in data set [7] is 127 nM; in [8], 266 nM.
Taken in the same sequence, the figures for `CC(C)c1ccc2c(Nc3cc(C(=O)N[C@@H](C)c4ccccc4Br)ccc3Sc3ccc(N)cc3)ncnc2n1` were 28 nM and 169 nM.
Taken in the same sequence, the figures for `CC(C)c1ccc2c(Nc3cc(C(=O)NC(C)c4ccccc4F)ccc3Sc3ccc(N)cc3)ncnc2n1` (stereo unspecified) were 20 nM and 280 nM.
Taken in the same sequence, the figures for `Cc1cccc(C(C)NC(=O)c2ccc(Sc3ccc(N)cc3)c(Nc3ncnc4nc(C(C)C)ccc34)c2)c1` (stereo unspecified) were 10 nM and 100 nM.
As for `Cc1ccc([C@H](C)NC(=O)c2ccc(Sc3ccc(N)cc3)c(Nc3ncnc4nc(C(C)C)ccc34)c2)cc1`, the AUC in data set [1] amounted to 600 ng·h/mL. In data set [2], the bioavailability stood at 12.2%. The half-life in data set [3] is 2.6 h; in data set [5] it was 0.7 h. Moreover, in data set [4], the Cmax was 160 ng/mL. The clearance in data set [6] was 18.3 mL/min/kg. Also, the EC50 turned out to be 5 nM in [7] and 22 nM in data set [8].
Consider `CC(=O)Nc1ccc(Sc2ccc(C(=O)N[C@@H](C)c3ccccc3)cc2Nc2ncnc3nc(C(C)C)ccc23)cc1`, for which the figures for the EC50 in data set [7] and in data set [8] were 149 nM and 5030 nM, respectively.
The matching figures for `CC(C)c1ccc2c(Nc3cc(C(=O)NCc4ccccc4)ccc3Sc3ccc(N)cc3)ncnc2n1`: 130 nM and 150 nM.
Regarding `CC(C)c1ccc2c(Nc3cc(C(=O)N[C@@H](C)c4ccccc4)ccc3Sc3ccc(N)cc3)ncnc2n1`, the concentration in solution in data set [13] (solubility) was 5 µM (≈ 2.67 µg/mL). Moreover, the concentration for a half-maximal effect (EC50) in data set [16] came out at 1200 nM; in [7] it was 7 nM; in [8] it was 45 nM. Also, the exposure (AUC) in [1] was found to be 6490 ng·h/mL; in data set [19], 2350 ng·h/mL. Besides, the bioavailability in [2] came out at 42.4%; in [22], 18.8%. The half-life in [3] was 2.7 h; in data set [5], 1.6 h; in data set [18], 3.2 h; in data set [21], 3 h. Moreover, the Cmax in data set [4] was found to be 1480 ng/mL; in data set [20], 490 ng/mL. Further, the clearance in data set [17] was 4.33 mL/min/kg; in data set [6], 5.5 mL/min/kg.
With `CC[C@H](NC(=O)c1ccc(Sc2ccc(N)cc2)c(Nc2ncnc3nc(C(C)C)ccc23)c1)c1ccccc1`, the EC50 came out at 33 nM in data set [7] and 35 nM in data set [8].
The matching figures for `CC(C)c1ccc2c(Nc3cc(C(=O)NC(C)c4ccccn4)ccc3Sc3ccc(N)cc3)ncnc2n1` (stereo unspecified): 164 nM and 919 nM.
Taken in the same sequence, the figures for `CC(C)c1ccc2c(Nc3cc(C(=O)N[C@@H](CCO)c4ccccc4)ccc3Sc3ccc(N)cc3)ncnc2n1` were 242 nM and 1470 nM.
Turning to `CC(C)c1ccc2c(Nc3cc(C(=O)N[C@@H]4CCc5ccccc54)ccc3Sc3ccc(N)cc3)ncnc2n1`, the figures for the EC50 in data set [7] and in data set [8] were 13 nM and 16 nM, respectively.
Molecule `CC(C)c1ccc2c(Nc3cc(C(=O)N[C@H](c4ccccc4)C(F)(F)F)ccc3Sc3ccc(N)cc3)ncnc2n1` showed an AUC in [1] of 3890 ng·h/mL. This molecule returned a bioavailability in data set [2] of 18.7%. Also, the half-life in [3] was 1.8 h; in data set [5], 2.9 h. In [4], this molecule returned a Cmax of 930 ng/mL. Further, in [6], the clearance is 4 mL/min/kg. The EC50 in data set [7] is 2 nM; in data set [8] it was 13 nM.
For the molecule `Cc1ccc2c(Nc3cc(C(=O)N[C@@H](C)c4ccccc4)ccc3Sc3ccc(N)cc3)ncnc2n1`, the EC50 in data set [7] is 600 nM; in data set [8] it was 1200 nM.
The matching figures for `C[C@H](NC(=O)c1ccc(Sc2ccc(N)cc2)c(Nc2ncnc3nc(C(F)(F)F)ccc23)c1)c1ccccc1`: 250 nM and 200 nM.
Taken in the same sequence, the figures for `CC(C)c1ccc2c(Nc3cc(C(=O)NC4(c5ccccc5)CC4)ccc3Sc3ccc(N)cc3)ncnc2n1` were 700 nM and 1070 nM.
Taken in the same sequence, the figures for `C[C@H](NC(=O)c1ccc(Sc2ccc(N)cc2)c(Nc2ncnc3nc(C(C)(C)C)ccc23)c1)c1ccccc1` were 3 nM and 46 nM.
`CC(C)c1ccc2c(Nc3cc(C(=O)N[C@@H](C)c4ccccc4)ccc3Oc3ccc(N)cc3)ncnc2n1`: the EC50 in [7] stood at 790 nM; in data set [8] it was 2310 nM.
The matching figures for `CC(C)c1ccc2c(Nc3cc(C(=O)N[C@@H](C)c4ccccc4)ccc3Sc3ccc(O)cc3)ncnc2n1`: 120 nM and 690 nM.
